Measurements as given in US7781479B2, “Heteroaryl derivatives” (Dainippon Sumitomo Pharma Co., Ltd., priority 2005, dated 2010).

How the values were obtained:
[1] = target: T1, human PPARγ ligand binding domain fused to GAL4 DNA binding domain (Homo sapiens, UniProt P37231); assay: GAL4-PPARγ luciferase reporter assay in COS-1 cells; assay type: cell-based; settings: for Emax: maximum PPARγ-agonistic activity per the maximum PPARγ-agonistic activity (100%) of pioglitazone
T1 construct: human PPARγ (including amino acids residue 204-505); expressed in transfected cells; host or cells: COS-1 cells
T1 sequence (P37231 204-505): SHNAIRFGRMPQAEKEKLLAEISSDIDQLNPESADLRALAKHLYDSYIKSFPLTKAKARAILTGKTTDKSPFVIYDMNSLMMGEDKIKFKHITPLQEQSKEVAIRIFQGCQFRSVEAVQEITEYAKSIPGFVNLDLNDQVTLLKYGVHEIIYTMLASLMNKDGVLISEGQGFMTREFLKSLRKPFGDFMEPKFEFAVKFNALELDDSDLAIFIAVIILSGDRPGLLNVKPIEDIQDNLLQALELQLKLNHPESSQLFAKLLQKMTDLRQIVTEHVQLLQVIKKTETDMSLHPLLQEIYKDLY
Source text: (§1) Evaluation of PPAR α or γ Agonistic Activity
(§2) Construction of Reporter Plasmid
(§3) By inserting a gene fragment encoding the ligand binding domain of human PPARα (including amino acid residues 167-468) or a gene fragment encoding the ligand binding domain of human PPARγ (including amino acids residue 204-505) into a multicloning site of expressing vector pM containing DNA binding domain of yeast GAL4 protein (Clonetech), a vector plasmid for expressing a fused protein of GAL4 protein DNA binding domain and human PPARα or γ ligand binding domain was obtained.
(§4) As a reporter plasmid, pGL3-Basic Vector containing firefly luciferase gene (Promega Corporation) was used wherein Gal 4-responsive sequence UAS and rabbit β-globin promoter were inserted.
(§5) For the correction of transformation efficiency, a plasmid pβgal control (Clonetech) containing lacZ gene, was used.
COS-1 cells were cultured in the phenol red free Dulbecco's Modified Eagles Medium (DMEM) (Gibco) supplemented with 5% activated charcoal/dextran stripped fetal bovine serum at 37° C. with 5% carbon dioxide. The COS-1 cells were plated at a concentration of 5×10^4 cells/well into a 24-well plate, and were incubated overnight. The medium was replaced with a fresh medium supplemented […] 5% activated charcoal/dextran treated fetal bovine serum. Further, the cells were transfected using Lipofectamine plus reagent (Gibco) with plasmids GAL4-PPARα- or γ-expressing plasmid (5 ng), the reporter plasmid (50 ng), and pβgal control (350 ng) per well. After incubation for 4 hours, the medium was changed with a fresh medium supplemented with 5% activated charcoal/dextran treated fetal bovine serum. Then, the compound of the present invention was added thereto in such an amount that the final concentration thereof is 0.1 μM, 0.3 μM, 1 μM, 3 μM or 10 μM. After the cultivation for 24 hours, the cells were lysed with a solution for cell lysis accompanied to the Luciferase Assay System (Promega Corporation). The luciferase activity therein was measured by a luminometer using the reagent for measuring luciferase which was also accompanied to said System.
The PPARα- or γ-agonistic activity was expressed as a relative activity where the luciferase activity in the well to which the vehicle (DMSO) was added as control was regarded as 1. The PPARα-agonistic activity and the PPARγ-agonistic activity at each 10 μM, and the maximum PPARγ-agonistic activity (%) of the compound of the present invention per the maximum PPARγ-agonistic activity (100%) of pioglitazone are shown in the following Table 1.

[2] = system: male db/db mice; assay: Hypoglycemic activity in db/db mice (blood glucose level); assay type: in vivo; settings: 30 mg/kg orally once a day for 2 weeks, blood glucose level on the last day
Experimental: The test compounds as disclosed in Examples were dissolved or suspended in a 0.5% carbomethyl cellulose solution, and orally administered to male db/db mice (7 to 8 weeks old) at a final dose of 30 mg/kg once a day for 2 weeks. On the last day, the blood was taken at the tail vein, and immediately thereafter, perchloric acid was added for removing proteins, and the blood glucose level was measured by Glucolse CII Test Wako (Wako Pure Industries, Ltd.).
The hypoglycemic activity was calculated by the following equation.

[3] = target: T2, human PPARα ligand binding domain fused to GAL4 DNA binding domain (Homo sapiens, UniProt Q07869); assay: GAL4-PPARα luciferase reporter assay in COS-1 cells; assay type: cell-based; settings: relative luciferase activity, vehicle (DMSO) control regarded as 1, 24 hours
T2 construct: human PPARα (including amino acid residues 167-468); expressed in transfected cells; host or cells: COS-1 cells
T2 sequence (Q07869 167-468): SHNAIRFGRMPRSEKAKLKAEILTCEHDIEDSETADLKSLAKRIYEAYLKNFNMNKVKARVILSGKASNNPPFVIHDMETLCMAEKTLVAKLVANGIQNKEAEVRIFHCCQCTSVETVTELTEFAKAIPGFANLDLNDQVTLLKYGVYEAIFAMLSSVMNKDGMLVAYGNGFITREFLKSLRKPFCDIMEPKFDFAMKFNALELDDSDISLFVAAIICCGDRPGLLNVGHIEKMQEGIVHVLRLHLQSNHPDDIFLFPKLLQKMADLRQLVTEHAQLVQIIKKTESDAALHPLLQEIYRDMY
Source text: as §1, §2, §3, §4, §5
COS-1 cells were cultured in the phenol red free Dulbecco's Modified Eagles Medium (DMEM) (Gibco) supplemented with 5% activated charcoal/dextran stripped fetal bovine serum at 37° C. with 5% carbon dioxide. […] The luciferase activity therein was measured by a luminometer using the reagent for measuring luciferase which was also accompanied to said System.
The PPARα- or γ-agonistic activity was expressed as a relative activity where the luciferase activity in the well to which the vehicle (DMSO) was added as control was regarded as 1. […]

## COc1ccc2c(C(=O)c3ccc(C)cc3)c(C)n(Cc3cccc(CO[C@H](C)C(=O)O)c3)c2c1 [Compound 54]
[1]
  Emax: 39%

## Cc1ccc(C(=O)c2nn(/C=C/c3ccc(CO[C@H](C)C(=O)O)cc3)c3ccccc23)cc1 [Example 34, (2R)-2-[(4-{(E)-2-[3-(4-Methylbenzoyl)-1H-indazol-1-yl]vinyl}benzyl)oxy]propanoic acid]
[2]
  Hypoglycemic Activity (%): 47.4%

## Cc1ccc(C(=O)c2c(C)n(Cc3cccc(CO[C@H](C)C(=O)O)c3)c3ncccc23)cc1 [Compound 59]
[1]
  Emax: 41%

## Cc1ccc(C(=O)c2nn(C/C=C/c3ccc(COC(C)(C)C(=O)O)cc3)c3ccccc23)cc1 [Example 35, 2-Methyl-2-[(4-{(1E)-3-[3-(4-methylbenzoyl)-1H-indazol-1-yl]prop-1-en-1-yl}benzyl)oxy]propanoic acid]
[2]
  Hypoglycemic Activity (%): 27.3%

## Cc1ccc(C(=O)c2cccn2C/C=C\c2ccc(COC(C)(C)C(=O)O)cc2)cc1 [Compound 1]
[1]
  Emax: 51%

## Cc1ccc(C(=O)c2cccn2Cc2ccc(/C=C/CO[C@H](C)C(=O)O)cc2)cc1 [Compound 68]
[1]
  Emax: 71%

## Cc1ccc(C(=O)c2nn(C/C=C/c3ccc(COC(C)(C)C(=O)O)cc3)c3ccccc23)cc1 [Compound 35]
[1]
  Emax: 57%

## COc1ccc2c(C(=O)c3ccc(C)cc3)c(C)n(Cc3cccc(CO[C@H](C)C(=O)O)c3)c2c1 [Example 54, (2R)-2-[(3-{[6-Methoxy-2-methyl-3-(4-methylbenzoyl)-1H-indol-1-yl]methyl-}benzyl)oxy]propionic acid]
[2]
  Hypoglycemic Activity (%): 47.7%

## Cc1ccc(C(=O)c2c(C)n(-c3ccc(COC4(C(=O)O)CCC4)cc3)c3ccccc23)cc1 [Example 86, 1-({4-[2-Methyl-3-(4-methylbenzoyl)-1H-indol-1-yl]benzyl}oxy)cyclobutane carboxylic acid]
[1]; 10 μM, relative luciferase activity, vehicle (DMSO) control regarded as 1, 24 hours
  PPARγ-agonistic activity (10 μM): 2.8
[1]
  Emax: 20%
[3]
  PPARα-agonistic activity (10 μM): 1.3

## Cc1ccc(C(=O)c2ccn(C/C=C/c3ccc(CO[C@H](C)C(=O)O)cc3)n2)cc1 [Compound 21]
[1]
  Emax: 71%

## Cc1ccc(C(=O)c2c(C)n(C/C=C/c3ccc(COC(C)(C)C(=O)O)cc3)c3ncccc23)cc1 [Compound 20]
[1]
  Emax: 68%

## Cc1ccc(C(=O)c2c(C)n(C/C=C/c3ccc(COC(C)(C)C(=O)O)cc3)c3ncccc23)cc1 [Example 20, 2-Methyl-2-[(4-{(1E)-3-[2-Methyl-3-(4-methylbenzoyl)-1H-pyrrolo[2,3-b]pyridin-1-yl]prop-1-en-1-yl}benzyl)oxy]propionic acid]
[2]
  Hypoglycemic Activity (%): 50.4%

## COc1ccc2c(C(=O)c3ccc(C)cc3)c(C)n(Cc3ccc(CO[C@H](C)C(=O)O)cc3)c2c1 [Compound 46]
[1]
  Emax: 26%

## Cc1ccc(C(=O)c2c(C)n(Cc3ccc(/C=C/COC(C)(C)C(=O)O)cc3)c3ccccc23)cc1 [Compound 79]
[1]
  Emax: 35%

## COc1ccc2c(C(=O)c3ccc(C)cc3)c(C)n(Cc3ccc(/C=C/COC(C)(C)C(=O)O)cc3)c2c1 [Compound 81]
[1]
  Emax: 42%

## Cc1ccc(C(=O)c2c(C)c3ccc(C(F)(F)F)cc3n2Cc2ccc(/C=C/COC(C)(C)C(=O)O)cc2)cc1 [Compound 83]
[1]
  Emax: 13%
